Assay results as given in patent US7235570B2, “1,4-dihydropyridine and pyridine compounds as calcium channel blockers” (Vittal Mallya Scientific Research, priority 2002, dated 2007).

Target: T1, T-type calcium channels (α1G) (Homo sapiens, UniProt O43497)
T1 construct: expressed in transfected cells
Test: T-type calcium channel block, whole-cell voltage clamp in HEK293 cells
Format: cell-based
Settings: α1G stably expressed in HEK293 cells, step to −30 mV from holding potential −110 mV
Description: T-type calcium channels (α1G) were stably expressed in HEK293 cells and maintained at 37° C. in DMEM. Cells were released from dishes using trypsin and EGTA or Accutase and studied within 4 hours of isolation. Individual cells were placed on the stage of an inverted microscope and patched with pipettes pulled from aluminasilicate glass capillary tubes, which had resistances of 0.8-1.5 Mohm. Currents were recorded using an Axopatch 200 (Axon Instruments, Inc.) and pClamp data acquisition software (8.1). The pipette solution contained (in mM): KCl 130, EGTA 11, HEPES 10, MGATP 5, pH ═7.4. The bath solution contained (in mM): NaCl 140, CaCl2 1, HEPES 10, pH═7.4. Test compounds were diluted into bath solution to the desired concentration (100 nM-10 μM) from a stock solutions (3 or 10 mM in DMSO). Current measurements were made at 20-23° C. Cells were held at −110 mV in order to maximize occupancy in the closed state and depolarized for 100 ms to various potentials. Currents were capacity corrected using 16-64 subthreshold responses (voltage steps of 10 or 20 mV) and leak subtracted, based on linear interpolation between the current at the holding potential and 0 mV. Cells were moved from a control chamber to a chamber with test compound and the effect of the drug was assessed using a voltage clamp protocol that stepped to −30 mV for 100 ms from a holding potential of −110 mV once every 5 s. After each 10-13 minutes, the train protocol was interrupted and a full current voltage relationship obtained. In general for each compound, four cells were studied for a minimum of 13 minutes, two in drug at 500 nM and two at 1 μM. In some cases other concentrations were also studied. Data were analyzed using Matlab (Mathworks, Natick, Mass.). Drug efficacy was estimated using the relationship: Blocked Fraction=[Drug]/(IC50+[Drug])

T1 sequence (O43497 whole entry): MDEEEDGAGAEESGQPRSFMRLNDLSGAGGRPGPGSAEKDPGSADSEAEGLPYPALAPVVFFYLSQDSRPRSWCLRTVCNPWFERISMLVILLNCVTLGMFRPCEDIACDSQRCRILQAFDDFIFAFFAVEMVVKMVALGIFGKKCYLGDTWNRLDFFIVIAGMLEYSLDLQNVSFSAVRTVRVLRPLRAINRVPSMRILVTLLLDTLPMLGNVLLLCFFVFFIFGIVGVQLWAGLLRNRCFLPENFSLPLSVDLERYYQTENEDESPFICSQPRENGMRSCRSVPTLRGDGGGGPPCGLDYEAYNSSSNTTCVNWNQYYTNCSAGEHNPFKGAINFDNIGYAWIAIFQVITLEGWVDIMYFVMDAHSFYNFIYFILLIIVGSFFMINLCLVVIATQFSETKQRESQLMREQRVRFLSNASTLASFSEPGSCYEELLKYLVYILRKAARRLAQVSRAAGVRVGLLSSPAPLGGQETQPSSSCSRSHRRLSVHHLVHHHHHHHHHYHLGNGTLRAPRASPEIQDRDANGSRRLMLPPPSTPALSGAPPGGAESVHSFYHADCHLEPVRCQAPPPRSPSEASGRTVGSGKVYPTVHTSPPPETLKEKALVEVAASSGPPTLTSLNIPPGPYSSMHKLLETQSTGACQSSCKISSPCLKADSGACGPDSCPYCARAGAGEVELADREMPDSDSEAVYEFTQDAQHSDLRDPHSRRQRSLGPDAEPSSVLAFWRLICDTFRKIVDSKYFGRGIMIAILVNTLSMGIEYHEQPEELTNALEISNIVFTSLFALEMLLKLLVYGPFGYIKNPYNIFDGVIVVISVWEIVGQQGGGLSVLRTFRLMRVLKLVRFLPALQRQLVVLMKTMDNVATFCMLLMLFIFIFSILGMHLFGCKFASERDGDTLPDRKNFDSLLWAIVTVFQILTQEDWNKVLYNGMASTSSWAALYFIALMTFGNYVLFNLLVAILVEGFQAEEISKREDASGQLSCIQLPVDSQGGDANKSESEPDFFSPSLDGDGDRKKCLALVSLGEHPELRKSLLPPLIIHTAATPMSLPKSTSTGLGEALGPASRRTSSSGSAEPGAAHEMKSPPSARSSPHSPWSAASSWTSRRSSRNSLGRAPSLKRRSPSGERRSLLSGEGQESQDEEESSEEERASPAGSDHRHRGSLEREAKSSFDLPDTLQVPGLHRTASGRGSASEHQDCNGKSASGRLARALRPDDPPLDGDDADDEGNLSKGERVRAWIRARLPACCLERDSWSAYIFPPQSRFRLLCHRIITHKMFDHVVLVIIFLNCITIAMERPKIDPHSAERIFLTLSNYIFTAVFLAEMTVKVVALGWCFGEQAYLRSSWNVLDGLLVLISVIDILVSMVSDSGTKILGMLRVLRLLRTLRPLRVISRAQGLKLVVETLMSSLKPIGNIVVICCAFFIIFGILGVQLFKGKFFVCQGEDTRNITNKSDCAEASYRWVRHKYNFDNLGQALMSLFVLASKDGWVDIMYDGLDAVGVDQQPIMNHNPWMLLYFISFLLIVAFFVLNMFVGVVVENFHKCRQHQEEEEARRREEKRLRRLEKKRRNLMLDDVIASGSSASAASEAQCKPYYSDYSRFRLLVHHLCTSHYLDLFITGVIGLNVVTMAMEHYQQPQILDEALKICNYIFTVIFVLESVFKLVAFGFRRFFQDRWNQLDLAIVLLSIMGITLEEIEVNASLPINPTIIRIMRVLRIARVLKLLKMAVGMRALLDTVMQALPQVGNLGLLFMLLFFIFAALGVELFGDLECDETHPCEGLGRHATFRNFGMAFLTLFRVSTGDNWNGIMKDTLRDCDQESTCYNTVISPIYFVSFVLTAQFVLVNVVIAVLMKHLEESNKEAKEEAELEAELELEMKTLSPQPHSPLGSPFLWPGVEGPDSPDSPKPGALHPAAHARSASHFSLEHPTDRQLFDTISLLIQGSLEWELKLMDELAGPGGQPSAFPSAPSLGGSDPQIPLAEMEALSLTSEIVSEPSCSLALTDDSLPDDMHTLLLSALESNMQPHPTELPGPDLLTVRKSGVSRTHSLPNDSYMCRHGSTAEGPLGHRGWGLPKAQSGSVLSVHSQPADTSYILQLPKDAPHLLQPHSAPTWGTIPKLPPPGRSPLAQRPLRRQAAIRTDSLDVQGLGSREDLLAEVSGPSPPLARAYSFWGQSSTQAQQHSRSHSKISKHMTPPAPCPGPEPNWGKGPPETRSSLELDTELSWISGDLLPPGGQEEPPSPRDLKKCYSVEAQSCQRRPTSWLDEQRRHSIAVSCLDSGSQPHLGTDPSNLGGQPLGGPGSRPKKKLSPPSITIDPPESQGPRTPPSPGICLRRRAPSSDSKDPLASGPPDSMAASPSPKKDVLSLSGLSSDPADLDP

Compound | % of calcium channels blocked (1 μM of comp'd) [%] | % of calcium channels blocked (500 nM of comp'd) [%]
CCCCCCCCCCCCCCCc1cccc(OC(C)C)c1C1C(C(=O)OC)=C(C)NC(C)=C1C(=O)OC [DHP-5, dimethyl 1,4-dihydro-4-(2′-isopropoxy-6′-pentadecylphenyl)-2,6-dimethyl-3,5-pyridine dicarboxylate] | 80 | –
CCCCCCCCCCCCCCCc1cccc(OCC)c1C1C(C(=O)OCC)=C(C)NC(C)=C1C(=O)OC(C)C (stereo not shown) [DHP-12, ethyl isopropyl 1,4-dihydro-4-(2′-ethoxy-6′-pentadecylphenyl)-2,6-dimethyl-3,5-pyridine dicarboxylate] | 77 | 5
COC(=O)C1=C(C)NC(C)=C(C(=O)OC)C1c1ccccc1[N+](=O)[O-] [Nifedipine] | 15 | 0
COCC(=O)O[C@]1(CCN(C)CCCc2nc3ccccc3[nH]2)CCc2cc(F)ccc2[C@@H]1C(C)C [Mibefradil] | 90 | 75
